pEC50: −log10 of the molar value. Values belong to the molecule of their own block, whether it stands above or below them.
How the values were obtained:
Type in all cases: cell-based
[1] = target: von Hippel-Lindau disease tumor suppressor/Bromodomain-containing protein 4 (Homo sapiens, UniProt O60885+P40337); experiment: PROTAC activity in VHL/BRD4 in human MV4-11 cells assessed as induction of BRD4 degradation by Western blot analysis
[2] = target: von Hippel-Lindau disease tumor suppressor/Leucine-rich repeat serine/threonine-protein kinase 2 (Homo sapiens, UniProt P40337+Q5S007); experiment: PROTAC activity at VHL/LRRK2 in human MV4-11 cells assessed as induction of LRRK2 degradation by Western blot analysis
[3] = target: von Hippel-Lindau disease tumor suppressor/Leucine-rich repeat serine/threonine-protein kinase 2 (Homo sapiens) (UniProt Q5S007+P40337); experiment: PROTAC activity at VHL/LRRK2 in human MV4-11 cells assessed as LRRK2 degradation by measuring maximal efficacy by Western blot analysis relative to control
[4] = target: von Hippel-Lindau disease tumor suppressor/Cyclin-dependent kinase 6 (Homo sapiens, UniProt P40337+Q00534); experiment: PROTAC activity at VHL/CDK6 in human MV4-11 cells assessed as induction of CDK6 degradation by Western blot analysis
[5] = target: von Hippel-Lindau disease tumor suppressor/Cyclin-dependent kinase 6 (Homo sapiens) (UniProt Q00534+P40337); experiment: PROTAC activity at VHL/CDK6 in human MV4-11 cells assessed as CDK6 degradation by measuring maximal efficacy by Western blot analysis
[6] = target: T1, von Hippel-Lindau disease tumor suppressor/Receptor-type tyrosine-protein kinase FLT3 (Homo sapiens, UniProt P36888+P40337); experiment: PROTAC activity at VHL/FLT3 in human MV4-11 cells assessed as induction of FLT3 degradation by Western blot analysis
Target sequence in this assay (P36888 whole entry): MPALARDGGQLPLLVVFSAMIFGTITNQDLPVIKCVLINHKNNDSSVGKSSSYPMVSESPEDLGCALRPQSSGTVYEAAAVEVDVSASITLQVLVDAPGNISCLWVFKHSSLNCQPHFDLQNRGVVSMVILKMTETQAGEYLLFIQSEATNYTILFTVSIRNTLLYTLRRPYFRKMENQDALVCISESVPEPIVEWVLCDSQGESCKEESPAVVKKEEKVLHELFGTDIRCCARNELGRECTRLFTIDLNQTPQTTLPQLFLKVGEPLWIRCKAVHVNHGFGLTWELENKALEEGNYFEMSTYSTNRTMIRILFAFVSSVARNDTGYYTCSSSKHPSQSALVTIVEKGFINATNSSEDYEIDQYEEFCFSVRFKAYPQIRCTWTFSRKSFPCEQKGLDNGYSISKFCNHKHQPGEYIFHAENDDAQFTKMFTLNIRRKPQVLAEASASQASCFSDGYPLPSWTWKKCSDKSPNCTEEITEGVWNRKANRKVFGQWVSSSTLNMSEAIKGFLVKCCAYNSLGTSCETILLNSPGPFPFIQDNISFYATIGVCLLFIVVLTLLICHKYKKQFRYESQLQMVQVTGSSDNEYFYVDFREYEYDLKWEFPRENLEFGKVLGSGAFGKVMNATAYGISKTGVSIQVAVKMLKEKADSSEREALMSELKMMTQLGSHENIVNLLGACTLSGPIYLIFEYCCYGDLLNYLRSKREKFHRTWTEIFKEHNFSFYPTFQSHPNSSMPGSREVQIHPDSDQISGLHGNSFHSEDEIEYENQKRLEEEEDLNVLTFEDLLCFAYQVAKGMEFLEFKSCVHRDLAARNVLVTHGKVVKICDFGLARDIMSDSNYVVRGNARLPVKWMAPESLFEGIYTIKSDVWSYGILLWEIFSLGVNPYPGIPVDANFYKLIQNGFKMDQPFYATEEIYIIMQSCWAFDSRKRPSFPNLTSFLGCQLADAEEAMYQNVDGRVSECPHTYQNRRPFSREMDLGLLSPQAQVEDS
Target sequence in this assay (P40337 whole entry): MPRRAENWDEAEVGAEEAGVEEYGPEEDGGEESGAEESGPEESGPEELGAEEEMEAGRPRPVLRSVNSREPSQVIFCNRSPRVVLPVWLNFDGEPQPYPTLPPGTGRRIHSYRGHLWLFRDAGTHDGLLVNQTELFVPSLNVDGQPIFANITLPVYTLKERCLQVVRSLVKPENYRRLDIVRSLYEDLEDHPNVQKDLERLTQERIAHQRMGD

[7] = target: T1, von Hippel-Lindau disease tumor suppressor/Receptor-type tyrosine-protein kinase FLT3; experiment: PROTAC activity at VHL/FLT3 in human MV4-11 cells assessed as FLT3 degradation by measuring maximal efficacy by Western blot analysis relative to control

Sequence of von Hippel-Lindau disease tumor suppressor/Leucine-rich repeat serine/threonine-protein kinase 2 (Q5S007 whole entry): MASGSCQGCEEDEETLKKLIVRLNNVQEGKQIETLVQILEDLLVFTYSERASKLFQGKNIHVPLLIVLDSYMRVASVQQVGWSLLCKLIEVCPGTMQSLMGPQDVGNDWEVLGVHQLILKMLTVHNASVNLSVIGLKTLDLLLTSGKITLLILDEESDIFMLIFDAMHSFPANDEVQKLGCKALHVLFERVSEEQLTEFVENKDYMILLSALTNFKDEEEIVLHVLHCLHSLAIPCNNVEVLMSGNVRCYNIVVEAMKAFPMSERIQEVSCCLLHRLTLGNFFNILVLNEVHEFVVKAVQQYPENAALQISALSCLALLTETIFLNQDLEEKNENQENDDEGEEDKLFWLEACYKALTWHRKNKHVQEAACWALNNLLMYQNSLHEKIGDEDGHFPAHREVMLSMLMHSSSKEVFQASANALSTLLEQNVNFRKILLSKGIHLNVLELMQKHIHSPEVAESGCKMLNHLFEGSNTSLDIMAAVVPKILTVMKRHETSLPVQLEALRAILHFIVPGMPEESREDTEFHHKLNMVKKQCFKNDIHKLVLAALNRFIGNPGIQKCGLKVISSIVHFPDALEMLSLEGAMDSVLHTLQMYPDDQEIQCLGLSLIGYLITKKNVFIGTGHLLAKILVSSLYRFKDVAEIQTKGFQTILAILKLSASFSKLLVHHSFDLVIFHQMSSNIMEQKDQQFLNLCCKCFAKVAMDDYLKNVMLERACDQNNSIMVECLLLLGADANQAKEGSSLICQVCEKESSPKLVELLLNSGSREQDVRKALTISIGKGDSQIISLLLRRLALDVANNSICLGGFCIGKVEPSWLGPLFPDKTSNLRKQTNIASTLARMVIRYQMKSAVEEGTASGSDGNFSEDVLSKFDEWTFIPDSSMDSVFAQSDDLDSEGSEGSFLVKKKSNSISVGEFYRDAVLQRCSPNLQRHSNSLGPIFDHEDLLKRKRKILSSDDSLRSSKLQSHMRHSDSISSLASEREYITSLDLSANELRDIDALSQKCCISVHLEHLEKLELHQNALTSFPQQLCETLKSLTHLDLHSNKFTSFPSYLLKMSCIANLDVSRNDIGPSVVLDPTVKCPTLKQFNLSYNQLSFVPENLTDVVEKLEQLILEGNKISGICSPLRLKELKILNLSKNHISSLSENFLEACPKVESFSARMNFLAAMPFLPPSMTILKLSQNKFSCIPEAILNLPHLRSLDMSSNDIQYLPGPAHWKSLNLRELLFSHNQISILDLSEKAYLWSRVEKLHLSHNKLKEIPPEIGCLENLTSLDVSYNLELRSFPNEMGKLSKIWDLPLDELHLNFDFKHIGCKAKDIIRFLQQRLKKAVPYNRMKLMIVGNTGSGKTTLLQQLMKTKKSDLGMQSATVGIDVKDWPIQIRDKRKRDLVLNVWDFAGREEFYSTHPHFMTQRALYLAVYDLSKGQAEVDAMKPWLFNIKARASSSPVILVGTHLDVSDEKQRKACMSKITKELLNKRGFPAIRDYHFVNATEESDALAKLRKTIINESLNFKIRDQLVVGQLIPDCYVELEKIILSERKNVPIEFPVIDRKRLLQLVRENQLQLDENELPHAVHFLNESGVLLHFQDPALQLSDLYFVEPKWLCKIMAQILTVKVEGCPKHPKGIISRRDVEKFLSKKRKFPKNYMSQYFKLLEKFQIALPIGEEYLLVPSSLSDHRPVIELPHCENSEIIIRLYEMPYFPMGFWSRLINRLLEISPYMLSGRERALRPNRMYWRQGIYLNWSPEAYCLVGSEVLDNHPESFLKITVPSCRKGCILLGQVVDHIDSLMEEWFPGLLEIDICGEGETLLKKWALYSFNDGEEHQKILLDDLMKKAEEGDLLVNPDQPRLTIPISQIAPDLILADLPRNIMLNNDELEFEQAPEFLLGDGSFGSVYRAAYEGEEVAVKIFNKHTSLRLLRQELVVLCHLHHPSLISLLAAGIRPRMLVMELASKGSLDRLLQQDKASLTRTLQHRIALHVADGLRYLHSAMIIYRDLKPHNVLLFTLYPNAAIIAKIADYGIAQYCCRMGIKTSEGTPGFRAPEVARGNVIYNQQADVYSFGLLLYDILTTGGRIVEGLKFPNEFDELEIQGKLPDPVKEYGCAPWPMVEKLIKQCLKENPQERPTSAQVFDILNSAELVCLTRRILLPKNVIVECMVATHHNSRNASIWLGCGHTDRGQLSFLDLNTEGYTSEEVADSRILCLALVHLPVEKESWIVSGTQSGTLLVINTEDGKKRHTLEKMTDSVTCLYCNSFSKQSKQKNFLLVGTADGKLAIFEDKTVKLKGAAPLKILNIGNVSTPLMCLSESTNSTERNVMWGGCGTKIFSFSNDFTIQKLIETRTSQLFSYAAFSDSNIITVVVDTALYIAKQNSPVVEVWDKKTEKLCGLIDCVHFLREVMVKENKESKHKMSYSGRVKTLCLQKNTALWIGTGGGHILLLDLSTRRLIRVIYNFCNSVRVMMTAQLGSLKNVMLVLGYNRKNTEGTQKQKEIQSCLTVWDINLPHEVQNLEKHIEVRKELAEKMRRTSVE
Sequence of von Hippel-Lindau disease tumor suppressor/Leucine-rich repeat serine/threonine-protein kinase 2 (P40337 whole entry): as the sequence (P40337 whole entry) above
Sequence of von Hippel-Lindau disease tumor suppressor/Cyclin-dependent kinase 6 (Q00534 whole entry): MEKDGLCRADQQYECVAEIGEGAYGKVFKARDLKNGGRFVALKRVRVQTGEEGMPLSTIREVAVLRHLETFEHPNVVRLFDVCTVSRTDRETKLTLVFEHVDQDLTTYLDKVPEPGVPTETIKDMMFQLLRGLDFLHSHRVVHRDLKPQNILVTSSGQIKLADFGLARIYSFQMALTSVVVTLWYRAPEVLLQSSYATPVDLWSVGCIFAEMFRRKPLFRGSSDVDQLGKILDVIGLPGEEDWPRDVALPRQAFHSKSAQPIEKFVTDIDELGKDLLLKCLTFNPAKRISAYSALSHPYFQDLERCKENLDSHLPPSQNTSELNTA
Sequence of von Hippel-Lindau disease tumor suppressor/Cyclin-dependent kinase 6 (P40337 whole entry): as the sequence (P40337 whole entry) above
Sequence of von Hippel-Lindau disease tumor suppressor/Bromodomain-containing protein 4 (P40337 whole entry, looked up, other chains not shown): as the sequence (P40337 whole entry) above
Sequence of von Hippel-Lindau disease tumor suppressor/Leucine-rich repeat serine/threonine-protein kinase 2 (Homo sapiens) (P40337 whole entry, looked up): as the sequence (P40337 whole entry) above
Sequence of von Hippel-Lindau disease tumor suppressor/Leucine-rich repeat serine/threonine-protein kinase 2 (Homo sapiens) (Q5S007 whole entry, looked up): as the sequence (Q5S007 whole entry) above
Sequence of von Hippel-Lindau disease tumor suppressor/Cyclin-dependent kinase 6 (Homo sapiens) (P40337 whole entry, looked up): as the sequence (P40337 whole entry) above
Sequence of von Hippel-Lindau disease tumor suppressor/Cyclin-dependent kinase 6 (Homo sapiens) (Q00534 whole entry, looked up): as the sequence (Q00534 whole entry) above

- pEC50 [1]: 7.80
SMILES: Cc1cc([C@H](C(=O)N2C[C@H](O)C[C@H]2C(=O)N[C@@H](C)c2ccc(-c3scnc3C#CCOCCOCCOCCOCCNC(=O)C[C@@H]3N=C(c4ccc(Cl)cc4)c4c(sc(C)c4C)-n4c(C)nnc43)cc2)C(C)C)on1

- pEC50 [2]: 7.82
- Emax [3]: > 82%
SMILES: CNc1nc(Nc2ccc(C(=O)N3CCN(C[C@H]4CC[C@H](CSC(C)(C)[C@H](NC(=O)C5(F)CC5)C(=O)N5C[C@H](O)C[C@H]5C(=O)NCc5ccc(-c6scnc6C)cc5)CC4)CC3)cc2OC)ncc1Cl

- pEC50 [4]: 8.29
- Emax [5]: 95%
SMILES: CC(=O)c1c(C)c2cnc(Nc3ccc(N4CCN(CCOCCOCCOc5cc(-c6scnc6C)ccc5CNC(=O)[C@@H]5C[C@@H](O)CN5C(=O)[C@@H](NC(=O)C5(F)CC5)C(C)(C)C)CC4)cn3)nc2n(C2CCCC2)c1=O

- pEC50 [6]: > 8.30
- Emax [7]: 90%
SMILES: Cc1ncsc1-c1ccc(CNC(=O)[C@@H]2C[C@@H](O)CN2C(=O)[C@@H](NC(=O)CCOCCOCCOc2ccc3c(c2)sc2nc(-c4ccc(NC(=O)Nc5cc(C(C)(C)C)on5)cc4)cn23)C(C)(C)C)cc1

Reference: ChEMBL document CHEMBL5380878, “A beginner's guide to current synthetic linker strategies towards VHL-recruiting PROTACs” (Bioorg Med Chem, 2023)
